This is an account of results in patent US20110282056A1, “PROTEIN KINASE INHIBITORS AND USE THEREOF” (priority 2008, published 2011).

SMILES strings stand for the structures. A value given as a limit tells only on which side of the number the result lay.

Type in all cases: biochemical
Test [1] concerns the target T1, Flt3 (Homo sapiens, UniProt P36888).
T1 construct: purchased BPS Bioscience; San Diego, Calif; 40225
T1 sequence (P36888 27-993): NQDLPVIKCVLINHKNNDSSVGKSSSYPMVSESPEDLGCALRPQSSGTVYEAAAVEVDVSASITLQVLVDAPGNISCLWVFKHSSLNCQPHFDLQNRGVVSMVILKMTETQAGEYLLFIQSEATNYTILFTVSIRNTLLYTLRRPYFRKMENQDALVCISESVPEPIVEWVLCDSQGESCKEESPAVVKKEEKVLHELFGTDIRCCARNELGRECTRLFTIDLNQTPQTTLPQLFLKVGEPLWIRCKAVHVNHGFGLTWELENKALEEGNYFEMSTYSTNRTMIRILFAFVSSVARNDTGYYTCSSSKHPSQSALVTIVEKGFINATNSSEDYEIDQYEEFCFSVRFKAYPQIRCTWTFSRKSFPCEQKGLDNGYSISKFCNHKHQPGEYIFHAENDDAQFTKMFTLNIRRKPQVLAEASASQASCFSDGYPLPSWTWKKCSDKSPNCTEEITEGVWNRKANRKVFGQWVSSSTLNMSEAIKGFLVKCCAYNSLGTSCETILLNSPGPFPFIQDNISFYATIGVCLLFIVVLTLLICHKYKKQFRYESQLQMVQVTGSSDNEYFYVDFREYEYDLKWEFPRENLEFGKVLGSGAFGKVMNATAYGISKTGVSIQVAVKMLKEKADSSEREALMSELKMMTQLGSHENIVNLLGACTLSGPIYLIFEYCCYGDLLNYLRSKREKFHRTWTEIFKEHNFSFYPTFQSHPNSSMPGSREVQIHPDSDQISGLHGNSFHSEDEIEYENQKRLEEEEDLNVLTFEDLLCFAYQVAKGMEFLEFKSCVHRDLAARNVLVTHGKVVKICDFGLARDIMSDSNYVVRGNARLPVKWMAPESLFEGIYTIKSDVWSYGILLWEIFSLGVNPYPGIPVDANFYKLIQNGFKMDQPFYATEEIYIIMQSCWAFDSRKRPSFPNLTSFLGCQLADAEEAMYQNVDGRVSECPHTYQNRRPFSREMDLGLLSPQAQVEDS
Briefly: Flt3 enzyme activity assay (Caliper LC3000 mobility shift). The note with it: 350 uM ATP (Km), 3 nM Flt3, 90 minutes at RT. The protocol:
(§1) Enzyme activity for VEGFR3, VEGFR2 and Flt3 were measured on the Caliper Life Sciences LC3000 (Hopkinton, Mass.). The system utilizes the principle of electroosmotic flow to separate and quantify the amount of phosphorylated-Fluorescein-labelled-peptide (product) from unphosphorylated-Fluorescein-labelled peptide (substrate). The amount of product and substrate are determined by measuring the peak heights from the electropherogram. The enzyme activity is then quantified by dividing the amount of product by the sum of the product and substrate. The inhibitory activity of a sample is measured by comparing the enzyme activity in the presence of sample versus the enzyme activity in the presence of dimethylsufoxide (DMSO). Specific assay conditions for each enzyme are listed below:
Flt3 assay: The peptide substrate at 1 uM (FITC-AHA-UEAIYAAPFAKKK-CONH2; synthesized at Tufts University, Boston, Mass.) was incubated with 350 uM of ATP, corresponding to the Michaelis-Menten (Km) constant of the enzyme/substrate reaction, and 3 nM of Flt3 (BPS Bioscience; San Diego, Calif.; Cat. No. 40225) for 90 minutes at RT. After 90 minutes, the reaction was stopped by the addition of 10 mM EDTA. The substrate and product were then separated on the LC3000.

For test [2], the target named is T2, VEGFR3 (Homo sapiens, UniProt P35916).
T2 construct: purchased Millpore Corp. (Millipore) 14-681
T2 sequence (P35916 25-1363): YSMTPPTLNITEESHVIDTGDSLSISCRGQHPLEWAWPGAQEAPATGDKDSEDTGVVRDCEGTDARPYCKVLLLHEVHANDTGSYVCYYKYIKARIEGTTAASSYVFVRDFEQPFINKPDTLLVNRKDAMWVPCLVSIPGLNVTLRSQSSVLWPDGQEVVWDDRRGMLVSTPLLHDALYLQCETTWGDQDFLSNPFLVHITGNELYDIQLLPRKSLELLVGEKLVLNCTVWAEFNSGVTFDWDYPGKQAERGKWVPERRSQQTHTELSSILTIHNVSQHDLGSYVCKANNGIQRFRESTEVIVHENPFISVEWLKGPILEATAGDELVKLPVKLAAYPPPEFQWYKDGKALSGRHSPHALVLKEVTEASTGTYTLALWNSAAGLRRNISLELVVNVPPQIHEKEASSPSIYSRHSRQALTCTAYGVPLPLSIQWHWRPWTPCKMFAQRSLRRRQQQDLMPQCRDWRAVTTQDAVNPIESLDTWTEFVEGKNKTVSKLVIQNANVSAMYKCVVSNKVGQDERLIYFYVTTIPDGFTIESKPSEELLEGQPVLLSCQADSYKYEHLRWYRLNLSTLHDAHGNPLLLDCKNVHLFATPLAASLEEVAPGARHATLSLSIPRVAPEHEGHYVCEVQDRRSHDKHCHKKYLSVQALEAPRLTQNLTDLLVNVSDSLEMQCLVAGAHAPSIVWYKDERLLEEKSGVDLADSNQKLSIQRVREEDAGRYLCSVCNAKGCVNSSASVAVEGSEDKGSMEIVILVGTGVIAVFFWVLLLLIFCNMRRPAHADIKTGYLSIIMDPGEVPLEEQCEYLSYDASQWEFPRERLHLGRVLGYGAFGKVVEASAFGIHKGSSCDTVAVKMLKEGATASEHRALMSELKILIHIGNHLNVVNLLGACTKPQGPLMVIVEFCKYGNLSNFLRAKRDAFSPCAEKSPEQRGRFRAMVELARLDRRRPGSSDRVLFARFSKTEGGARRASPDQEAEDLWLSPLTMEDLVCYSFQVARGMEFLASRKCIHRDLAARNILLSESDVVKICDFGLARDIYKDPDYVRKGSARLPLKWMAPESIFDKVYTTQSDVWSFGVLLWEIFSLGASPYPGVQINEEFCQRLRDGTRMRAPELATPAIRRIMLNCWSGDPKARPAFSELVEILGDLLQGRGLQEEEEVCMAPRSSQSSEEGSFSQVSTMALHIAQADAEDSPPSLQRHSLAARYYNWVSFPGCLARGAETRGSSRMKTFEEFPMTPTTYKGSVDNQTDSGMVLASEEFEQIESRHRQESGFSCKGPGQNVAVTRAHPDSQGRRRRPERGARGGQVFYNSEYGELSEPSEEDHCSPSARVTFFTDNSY
Briefly: VEGFR3 enzyme activity assay (Caliper LC3000 mobility shift). As to conditions: 400 uM ATP (Km), 0.4 nM VEGFR3, 90 minutes at RT. Here is the method: as §1
VEGFR3 assay: The peptide substrate at 1 uM (FITC-KKKKEEIYFFF-CONH2; synthesized at Tufts University, Boston, Mass.) was incubated with 400 uM of ATP, corresponding to the Michaelis-Menten (Km) constant of the enzyme/substrate reaction, and 0.4 nM of VEGFR3 (Millpore Corp., Cat. No. 14-681) for 90 minutes at RT. After 90 minutes, the reaction was stopped by the addition of 10 mM EDTA. The substrate and product were then separated on the LC3000.

Test [3] addresses T3, VEGFR2 (Homo sapiens, UniProt P35968).
T3 construct: purchased BPS Bioscience; San Diego, Calif; 40301
Briefly: VEGFR2 enzyme activity assay (Caliper LC3000 mobility shift). As to conditions: 160 uM ATP (Km), 1 nM VEGFR2, 90 minutes at RT. Here is the method:
as §1
VEGFR2 assay: The peptide substrate at 1 uM (5-FL-EEPLYWSFPAKKK-CONH2; synthesized at Tufts University, Boston, Mass.) was incubated with 160 uM of ATP, corresponding to the Michaelis-Menten (Km) constant of the enzyme/substrate reaction, and 1 nM of VEGFR2 (BPS Bioscience; San Diego, Calif.; Cat. No. 40301) for 90 minutes at RT. After 90 minutes, the reaction was stopped by the addition of 10 mM EDTA. The substrate and product were then separated on the LC3000.

T3 sequence (P35968 20-1356): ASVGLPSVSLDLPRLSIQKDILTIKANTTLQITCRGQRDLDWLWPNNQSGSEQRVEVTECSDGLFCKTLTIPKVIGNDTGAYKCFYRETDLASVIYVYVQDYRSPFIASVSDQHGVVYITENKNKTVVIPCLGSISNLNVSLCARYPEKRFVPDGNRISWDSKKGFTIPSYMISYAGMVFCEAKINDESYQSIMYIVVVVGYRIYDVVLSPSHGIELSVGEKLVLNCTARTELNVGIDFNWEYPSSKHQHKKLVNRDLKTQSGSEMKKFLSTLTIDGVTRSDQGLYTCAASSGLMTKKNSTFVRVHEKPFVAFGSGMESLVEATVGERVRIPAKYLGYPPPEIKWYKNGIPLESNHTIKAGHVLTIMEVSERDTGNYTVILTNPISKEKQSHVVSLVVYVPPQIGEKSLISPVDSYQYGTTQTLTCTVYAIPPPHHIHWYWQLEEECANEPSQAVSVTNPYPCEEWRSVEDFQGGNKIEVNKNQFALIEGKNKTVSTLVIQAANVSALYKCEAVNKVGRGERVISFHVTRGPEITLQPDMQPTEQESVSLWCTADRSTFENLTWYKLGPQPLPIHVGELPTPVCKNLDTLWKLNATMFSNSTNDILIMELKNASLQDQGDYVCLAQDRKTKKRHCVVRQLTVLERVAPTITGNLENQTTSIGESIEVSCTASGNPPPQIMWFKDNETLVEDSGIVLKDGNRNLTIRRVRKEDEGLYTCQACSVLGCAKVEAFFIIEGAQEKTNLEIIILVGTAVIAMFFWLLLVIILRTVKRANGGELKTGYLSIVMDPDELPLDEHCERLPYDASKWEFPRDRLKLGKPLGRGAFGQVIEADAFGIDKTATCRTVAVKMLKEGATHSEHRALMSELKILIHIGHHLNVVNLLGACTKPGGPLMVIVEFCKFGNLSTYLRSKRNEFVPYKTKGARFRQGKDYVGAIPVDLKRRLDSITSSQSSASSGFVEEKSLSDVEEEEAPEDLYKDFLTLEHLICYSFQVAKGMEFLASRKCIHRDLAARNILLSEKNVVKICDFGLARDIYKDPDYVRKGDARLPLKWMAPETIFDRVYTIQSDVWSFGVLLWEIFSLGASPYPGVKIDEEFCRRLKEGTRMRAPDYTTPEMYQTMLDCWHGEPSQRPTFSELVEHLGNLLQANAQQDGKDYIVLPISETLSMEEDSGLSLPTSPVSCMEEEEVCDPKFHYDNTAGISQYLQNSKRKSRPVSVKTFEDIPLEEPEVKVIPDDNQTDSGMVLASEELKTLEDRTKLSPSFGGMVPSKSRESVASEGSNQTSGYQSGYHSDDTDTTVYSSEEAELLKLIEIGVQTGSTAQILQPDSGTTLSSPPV

A word on the IC50: it is the concentration at which inhibition is half-maximal. Turning to `COc1ccc(OC)c(C#Cc2ccnc3[nH]ccc23)c1` [compound 73], the IC50 in test [1] is over 1000 nM; in test [2], 100 to 1000 nM; in test [3], over 1000 nM.

For the compound `FC(F)(F)c1ccccc1C#Cc1cnc2[nH]ccc2c1` [compound 105], the IC50 in test [1], in test [2] and in test [3] was over 1000 nM in each case.

For `N#Cc1ccc(C#Cc2ccnc3[nH]ccc23)cn1` [compound 110], the IC50 in test [1], in test [2] and in test [3] was over 1000 nM in each case.

Take `C(#Cc1ccnc2[nH]ccc12)c1ccccc1-n1cccc1` [compound 58]: the IC50 was over 1000 nM in test [1], 100 to 1000 nM in test [2] and over 1000 nM in test [3].

Turning to `Cc1ccc(C#Cc2ccnc3[nH]ccc23)cc1` [compound 70], the values for the IC50 in test [1], in test [2] and in test [3] were over 1000 nM, 100 to 1000 nM and over 1000 nM, respectively.

On to `C(#Cc1ccnc2[nH]ccc12)c1ccc2c(c1)OCO2` [compound 72], for which the values for the IC50 in test [1], in test [2] and in test [3] were over 1000 nM, 100 to 1000 nM and over 1000 nM, respectively.

Take `FC(F)(F)Oc1cccc(C#Cc2ccnc3[nH]ccc23)c1` [compound 123]: the IC50 in test [1], in test [2] and in test [3] was over 1000 nM throughout.

`COC(=O)c1ccc(C#Cc2ccnc3[nH]ccc23)cc1` [compound 130]: the IC50 in test [1], in test [2] and in test [3] was over 1000 nM throughout.

Regarding `Cc1nc(-c2ccc(C#Cc3ccnc4[nH]ccc34)cc2)no1` [compound 114], the IC50 in test [1], in test [2] and in test [3] was over 1000 nM throughout.

As to `FC(F)(F)c1ccccc1C#Cc1ccnc2[nH]ccc12` [compound 48], the values for the IC50 in test [1], in test [2] and in test [3] were over 1000 nM, 100 to 1000 nM and over 1000 nM, respectively.

For `C#Cc1ccnc2[nH]ccc12` [compound 96], the IC50 in test [1], in test [2] and in test [3] was over 1000 nM each time.

In the case of `C(#Cc1ccnc2[nH]ccc12)c1ccccn1` [compound 86], the IC50 in test [1], in test [2] and in test [3] was over 1000 nM each time.

For `FC(F)(F)c1cccc(C#Cc2ccnc3[nH]ccc23)c1` [compound 116], the IC50 in test [1], in test [2] and in test [3] was over 1000 nM throughout.

With `N#Cc1ccc(C#Cc2ccnc3[nH]ccc23)cc1` [compound 100], the IC50 in test [1], in test [2] and in test [3] was over 1000 nM throughout.

Consider `Cc1cccc(C#Cc2ccnc3[nH]ccc23)c1` [compound 62], for which the IC50 in test [1] was over 1000 nM; in test [2] it was 100 to 1000 nM; in test [3], over 1000 nM.

As for `COc1ccc(C#Cc2ccnc(NC(=O)OC(C)(C)C)c2)cc1` [compound 132], the IC50 in test [1], in test [2] and in test [3] was over 1000 nM each time.

`C(#Cc1ccnc2[nH]ccc12)c1cccc(-n2cccc2)c1` [compound 92]: the IC50 in test [1], in test [2] and in test [3] was over 1000 nM each time.

As to `Cc1ccnc(C#Cc2ccnc3[nH]ccc23)c1` [compound 68], the values for the IC50 in test [1], in test [2] and in test [3] were over 1000 nM, 100 to 1000 nM and over 1000 nM, respectively.

Turning to `Fc1ccc(C#Cc2ccnc3[nH]ccc23)cc1` [compound 80], the IC50 in test [1], in test [2] and in test [3] was over 1000 nM each time.

Turning to `Cc1cccc(C)c1C#Cc1ccnc2[nH]ccc12` [compound 117], the IC50 in test [1], in test [2] and in test [3] was over 1000 nM throughout.

Take `COc1ccc(C#Cc2cnc3[nH]ccc3c2)cc1` [compound 138]: the IC50 in test [1], in test [2] and in test [3] was over 1000 nM throughout.

Regarding `Cn1cncc1C#Cc1ccnc2[nH]ccc12` [compound 66], the IC50 in test [1], in test [2] and in test [3] was 100 to 1000 nM each time.

For the compound `CCc1ccccc1C#Cc1ccnc2[nH]ccc12` [compound 64], the figures for the IC50 in test [1], in test [2] and in test [3] were over 1000 nM, 100 to 1000 nM and over 1000 nM, respectively.
